Our source for the residual activity and IC50 values is ChEMBL document CHEMBL4507268 (2021).

SMILES strings stand for the structures. Bounds are passed on as bounds.

Assay [1] concerns the target Tyrosine-protein kinase ABL1 (Homo sapiens) (UniProt P00519). The following applies: Compound concentration 1000.0 nM.
Assay [2] has as its target Cyclin-dependent kinase 16 (Homo sapiens) (UniProt Q00536). The following applies: Compound concentration 1000.0 nM.
Assay [3] addresses Homeodomain-interacting protein kinase 3 (Homo sapiens) (UniProt Q9H422). The following applies: Compound concentration 1000.0 nM.
Assay [4] concerns Tyrosine-protein kinase ABL1 (Homo sapiens), P00519 [E255K]. The following applies: Compound concentration 1000.0 nM.
For assay [5], the target named is Myosin-IIIa (Homo sapiens) (UniProt Q8NEV4). The following applies: Compound concentration 1000.0 nM.
Assay [6] deals with T1, Serine/threonine-protein kinase DCLK2 (Homo sapiens) (UniProt Q8N568).
T1 sequence (whole entry): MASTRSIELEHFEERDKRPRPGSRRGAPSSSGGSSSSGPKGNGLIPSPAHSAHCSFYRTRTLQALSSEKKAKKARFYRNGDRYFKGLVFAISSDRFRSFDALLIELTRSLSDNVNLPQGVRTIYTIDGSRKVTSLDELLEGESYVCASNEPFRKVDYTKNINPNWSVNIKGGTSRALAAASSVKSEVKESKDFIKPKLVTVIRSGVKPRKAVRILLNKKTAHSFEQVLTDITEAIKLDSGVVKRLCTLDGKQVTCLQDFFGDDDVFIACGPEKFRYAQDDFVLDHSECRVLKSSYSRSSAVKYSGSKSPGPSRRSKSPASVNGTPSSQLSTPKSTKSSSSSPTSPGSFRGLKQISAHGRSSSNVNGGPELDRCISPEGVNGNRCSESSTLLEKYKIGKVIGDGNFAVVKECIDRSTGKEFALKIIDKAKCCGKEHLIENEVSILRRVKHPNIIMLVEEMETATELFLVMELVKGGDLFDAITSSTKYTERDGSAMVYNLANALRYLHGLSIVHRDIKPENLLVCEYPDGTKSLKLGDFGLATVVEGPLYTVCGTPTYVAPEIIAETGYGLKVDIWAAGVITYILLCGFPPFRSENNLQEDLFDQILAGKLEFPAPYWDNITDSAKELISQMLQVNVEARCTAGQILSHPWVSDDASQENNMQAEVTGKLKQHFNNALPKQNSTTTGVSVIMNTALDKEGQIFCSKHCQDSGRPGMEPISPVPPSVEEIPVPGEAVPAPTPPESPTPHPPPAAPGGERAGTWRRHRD
The following applies: Compound concentration 1000.0 nM.

Assay [7] has as its target Serine/threonine-protein kinase PAK 2 (Homo sapiens) (UniProt Q13177). The following applies: Compound concentration 1000.0 nM.
A further assay deals with SNU-449. Nature of the assay: Proliferation assay: SNU-449 (hepatocellular carcinoma). Type of assay: functional, cell-based. The following applies: Homo sapiens.
Assay [8] deals with Serine/threonine-protein kinase WNK4 (Homo sapiens) (UniProt Q96J92). The following applies: Compound concentration 1000.0 nM.
The subject of assay [9] is Tyrosine-protein kinase ABL1 (Homo sapiens), P00519 [Q252H]. The following applies: Compound concentration 1000.0 nM.
Assay [10] deals with Platelet-derived growth factor receptor alpha (Homo sapiens) (UniProt P16234). The following applies: Compound concentration 1000.0 nM.
For assay [11], the target named is Serine/threonine-protein kinase 33 (Homo sapiens) (UniProt Q9BYT3). The following applies: Compound concentration 1000.0 nM.
Assay [12] has as its target STE20/SPS1-related proline-alanine-rich protein kinase (Homo sapiens) (UniProt Q9UEW8). The following applies: Compound concentration 1000.0 nM.
Assay [13] has as its target T2, Serine/threonine-protein kinase 4 (Homo sapiens) (UniProt Q13043).
T2 sequence (whole entry): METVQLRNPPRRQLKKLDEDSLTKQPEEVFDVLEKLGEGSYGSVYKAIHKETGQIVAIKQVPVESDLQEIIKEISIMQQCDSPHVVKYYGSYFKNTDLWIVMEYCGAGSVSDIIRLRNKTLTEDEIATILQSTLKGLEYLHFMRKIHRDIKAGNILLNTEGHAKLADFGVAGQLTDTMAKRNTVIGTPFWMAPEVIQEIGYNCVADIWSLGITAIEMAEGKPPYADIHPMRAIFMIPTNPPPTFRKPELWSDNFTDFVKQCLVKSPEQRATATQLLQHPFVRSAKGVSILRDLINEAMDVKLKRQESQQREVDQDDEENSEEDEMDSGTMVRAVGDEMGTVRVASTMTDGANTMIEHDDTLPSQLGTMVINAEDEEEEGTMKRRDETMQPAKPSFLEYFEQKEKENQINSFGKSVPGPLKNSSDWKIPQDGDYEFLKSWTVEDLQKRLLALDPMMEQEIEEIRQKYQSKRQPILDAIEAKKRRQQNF
The following applies: Compound concentration 1000.0 nM.

Assay [14] deals with T3, Serine/threonine-protein kinase Nek11 (Homo sapiens) (UniProt Q8NG66).
T3 sequence (whole entry): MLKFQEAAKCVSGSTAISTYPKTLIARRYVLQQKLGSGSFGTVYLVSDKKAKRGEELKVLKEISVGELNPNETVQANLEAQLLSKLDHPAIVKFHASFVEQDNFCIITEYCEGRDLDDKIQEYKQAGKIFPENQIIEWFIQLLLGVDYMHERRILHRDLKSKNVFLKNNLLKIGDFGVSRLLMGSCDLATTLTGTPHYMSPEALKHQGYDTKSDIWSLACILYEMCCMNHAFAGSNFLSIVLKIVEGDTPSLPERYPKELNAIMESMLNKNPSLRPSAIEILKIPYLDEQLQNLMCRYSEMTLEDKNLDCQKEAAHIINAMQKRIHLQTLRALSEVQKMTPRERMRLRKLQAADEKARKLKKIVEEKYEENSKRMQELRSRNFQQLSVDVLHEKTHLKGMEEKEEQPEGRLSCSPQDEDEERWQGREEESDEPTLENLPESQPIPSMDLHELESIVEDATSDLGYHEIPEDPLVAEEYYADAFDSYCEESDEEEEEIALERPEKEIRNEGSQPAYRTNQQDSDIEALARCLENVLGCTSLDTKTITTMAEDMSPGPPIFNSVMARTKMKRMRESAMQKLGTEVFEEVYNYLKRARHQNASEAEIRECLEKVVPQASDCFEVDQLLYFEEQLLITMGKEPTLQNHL
The following applies: Compound concentration 1000.0 nM.

The target of assay [15] is Serine/threonine-protein kinase MRCK beta (Homo sapiens) (UniProt Q9Y5S2). The following applies: Compound concentration 1000.0 nM.

Chain of Homeodomain-interacting protein kinase 3 (Homo sapiens) (Q9H422 whole entry, looked up): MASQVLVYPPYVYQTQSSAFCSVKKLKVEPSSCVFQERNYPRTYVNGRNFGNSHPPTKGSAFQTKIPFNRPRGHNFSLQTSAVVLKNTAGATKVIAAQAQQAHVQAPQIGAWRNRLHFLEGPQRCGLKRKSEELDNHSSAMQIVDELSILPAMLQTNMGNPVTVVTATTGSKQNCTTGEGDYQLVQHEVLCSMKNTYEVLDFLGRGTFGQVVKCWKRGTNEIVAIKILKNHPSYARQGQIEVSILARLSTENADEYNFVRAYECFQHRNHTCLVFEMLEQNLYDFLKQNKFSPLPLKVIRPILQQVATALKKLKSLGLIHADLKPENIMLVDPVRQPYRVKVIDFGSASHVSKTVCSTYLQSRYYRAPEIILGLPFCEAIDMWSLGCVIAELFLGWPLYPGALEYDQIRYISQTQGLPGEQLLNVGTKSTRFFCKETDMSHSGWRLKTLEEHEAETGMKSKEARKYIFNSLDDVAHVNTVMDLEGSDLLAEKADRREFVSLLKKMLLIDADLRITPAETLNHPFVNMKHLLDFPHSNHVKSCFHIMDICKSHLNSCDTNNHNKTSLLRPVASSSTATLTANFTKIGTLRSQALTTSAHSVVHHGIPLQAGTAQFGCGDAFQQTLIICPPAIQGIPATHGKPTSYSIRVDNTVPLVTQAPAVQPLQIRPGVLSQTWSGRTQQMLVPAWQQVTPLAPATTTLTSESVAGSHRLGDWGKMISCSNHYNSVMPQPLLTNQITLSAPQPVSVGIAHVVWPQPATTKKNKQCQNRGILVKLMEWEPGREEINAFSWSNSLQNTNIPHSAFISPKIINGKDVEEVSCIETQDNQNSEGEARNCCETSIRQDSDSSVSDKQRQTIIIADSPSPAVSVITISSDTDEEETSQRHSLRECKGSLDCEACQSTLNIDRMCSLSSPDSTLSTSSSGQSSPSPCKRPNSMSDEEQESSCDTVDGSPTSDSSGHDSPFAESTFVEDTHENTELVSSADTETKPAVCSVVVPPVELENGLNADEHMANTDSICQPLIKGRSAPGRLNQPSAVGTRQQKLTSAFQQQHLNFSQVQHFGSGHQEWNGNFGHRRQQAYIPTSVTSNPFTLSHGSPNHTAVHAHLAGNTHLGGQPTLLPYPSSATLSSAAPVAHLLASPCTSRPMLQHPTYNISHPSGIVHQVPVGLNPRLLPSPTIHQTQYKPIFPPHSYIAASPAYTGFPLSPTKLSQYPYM
Chain of Cyclin-dependent kinase 16 (Homo sapiens) (Q00536 whole entry): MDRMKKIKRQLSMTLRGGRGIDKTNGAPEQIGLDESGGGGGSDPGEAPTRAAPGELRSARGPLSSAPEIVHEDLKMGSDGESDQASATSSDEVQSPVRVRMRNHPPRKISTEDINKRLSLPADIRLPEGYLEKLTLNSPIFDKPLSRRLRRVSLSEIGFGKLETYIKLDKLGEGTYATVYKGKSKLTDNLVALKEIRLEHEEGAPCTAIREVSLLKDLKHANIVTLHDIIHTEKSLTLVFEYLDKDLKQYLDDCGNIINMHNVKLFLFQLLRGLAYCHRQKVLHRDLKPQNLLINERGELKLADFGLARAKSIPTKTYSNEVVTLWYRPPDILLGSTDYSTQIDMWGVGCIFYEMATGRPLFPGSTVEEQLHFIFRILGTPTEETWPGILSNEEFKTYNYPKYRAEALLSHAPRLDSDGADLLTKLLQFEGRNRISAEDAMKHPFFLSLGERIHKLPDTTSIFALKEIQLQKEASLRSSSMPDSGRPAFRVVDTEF
Chain of Serine/threonine-protein kinase 33 (Homo sapiens) (Q9BYT3 whole entry, looked up): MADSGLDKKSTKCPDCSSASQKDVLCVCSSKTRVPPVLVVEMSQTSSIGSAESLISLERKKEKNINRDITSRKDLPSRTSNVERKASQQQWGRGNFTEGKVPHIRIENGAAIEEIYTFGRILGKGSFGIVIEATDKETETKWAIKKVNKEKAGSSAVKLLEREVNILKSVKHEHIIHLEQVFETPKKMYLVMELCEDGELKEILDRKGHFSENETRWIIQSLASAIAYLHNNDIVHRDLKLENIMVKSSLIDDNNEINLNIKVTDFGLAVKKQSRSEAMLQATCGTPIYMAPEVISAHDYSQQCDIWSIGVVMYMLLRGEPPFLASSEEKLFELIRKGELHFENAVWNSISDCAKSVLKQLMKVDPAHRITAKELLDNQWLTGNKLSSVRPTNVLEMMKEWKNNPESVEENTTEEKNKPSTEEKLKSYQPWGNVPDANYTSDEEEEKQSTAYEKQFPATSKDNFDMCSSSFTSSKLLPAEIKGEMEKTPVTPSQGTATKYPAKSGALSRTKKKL
Chain of Myosin-IIIa (Homo sapiens) (Q8NEV4 whole entry): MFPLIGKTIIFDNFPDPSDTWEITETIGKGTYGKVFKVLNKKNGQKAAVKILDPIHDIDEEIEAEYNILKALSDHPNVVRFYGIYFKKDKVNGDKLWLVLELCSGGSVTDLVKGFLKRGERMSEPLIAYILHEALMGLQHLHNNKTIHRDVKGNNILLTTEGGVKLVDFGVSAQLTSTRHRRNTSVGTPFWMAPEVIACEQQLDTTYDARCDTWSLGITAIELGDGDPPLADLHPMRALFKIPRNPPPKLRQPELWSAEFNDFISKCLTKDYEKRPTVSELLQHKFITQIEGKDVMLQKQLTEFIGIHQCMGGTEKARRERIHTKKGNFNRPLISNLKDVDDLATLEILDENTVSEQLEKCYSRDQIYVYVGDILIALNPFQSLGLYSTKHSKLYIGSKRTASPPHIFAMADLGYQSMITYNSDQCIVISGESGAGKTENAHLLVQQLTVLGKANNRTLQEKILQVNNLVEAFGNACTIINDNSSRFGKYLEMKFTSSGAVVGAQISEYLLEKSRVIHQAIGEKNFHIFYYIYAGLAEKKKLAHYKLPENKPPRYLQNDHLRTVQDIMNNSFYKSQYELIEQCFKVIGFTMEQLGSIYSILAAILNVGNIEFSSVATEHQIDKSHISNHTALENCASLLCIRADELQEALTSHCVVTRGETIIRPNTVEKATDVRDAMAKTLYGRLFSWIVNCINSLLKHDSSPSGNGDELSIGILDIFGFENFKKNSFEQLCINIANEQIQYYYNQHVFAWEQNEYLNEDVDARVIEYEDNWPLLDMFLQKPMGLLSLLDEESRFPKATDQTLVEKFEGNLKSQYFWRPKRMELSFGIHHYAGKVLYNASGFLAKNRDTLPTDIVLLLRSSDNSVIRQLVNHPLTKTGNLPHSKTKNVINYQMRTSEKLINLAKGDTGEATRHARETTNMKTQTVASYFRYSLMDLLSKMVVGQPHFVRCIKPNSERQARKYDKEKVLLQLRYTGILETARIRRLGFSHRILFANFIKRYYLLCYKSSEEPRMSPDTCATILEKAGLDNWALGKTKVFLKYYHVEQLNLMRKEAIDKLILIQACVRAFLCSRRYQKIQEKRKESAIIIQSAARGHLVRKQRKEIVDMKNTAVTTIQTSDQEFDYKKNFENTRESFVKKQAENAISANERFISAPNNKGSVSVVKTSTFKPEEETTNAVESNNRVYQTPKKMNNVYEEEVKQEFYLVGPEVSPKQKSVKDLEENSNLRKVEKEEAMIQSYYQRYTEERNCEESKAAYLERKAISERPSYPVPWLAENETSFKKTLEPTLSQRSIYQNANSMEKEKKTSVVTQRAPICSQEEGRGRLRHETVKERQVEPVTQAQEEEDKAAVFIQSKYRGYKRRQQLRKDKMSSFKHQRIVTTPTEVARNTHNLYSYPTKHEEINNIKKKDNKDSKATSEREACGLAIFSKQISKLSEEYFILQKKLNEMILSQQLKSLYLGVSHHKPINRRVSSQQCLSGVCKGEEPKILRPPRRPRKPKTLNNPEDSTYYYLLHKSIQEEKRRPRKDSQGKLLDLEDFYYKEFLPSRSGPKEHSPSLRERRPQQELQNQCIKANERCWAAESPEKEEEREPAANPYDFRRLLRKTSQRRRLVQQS
Chain of Serine/threonine-protein kinase WNK4 (Homo sapiens) (Q96J92 whole entry): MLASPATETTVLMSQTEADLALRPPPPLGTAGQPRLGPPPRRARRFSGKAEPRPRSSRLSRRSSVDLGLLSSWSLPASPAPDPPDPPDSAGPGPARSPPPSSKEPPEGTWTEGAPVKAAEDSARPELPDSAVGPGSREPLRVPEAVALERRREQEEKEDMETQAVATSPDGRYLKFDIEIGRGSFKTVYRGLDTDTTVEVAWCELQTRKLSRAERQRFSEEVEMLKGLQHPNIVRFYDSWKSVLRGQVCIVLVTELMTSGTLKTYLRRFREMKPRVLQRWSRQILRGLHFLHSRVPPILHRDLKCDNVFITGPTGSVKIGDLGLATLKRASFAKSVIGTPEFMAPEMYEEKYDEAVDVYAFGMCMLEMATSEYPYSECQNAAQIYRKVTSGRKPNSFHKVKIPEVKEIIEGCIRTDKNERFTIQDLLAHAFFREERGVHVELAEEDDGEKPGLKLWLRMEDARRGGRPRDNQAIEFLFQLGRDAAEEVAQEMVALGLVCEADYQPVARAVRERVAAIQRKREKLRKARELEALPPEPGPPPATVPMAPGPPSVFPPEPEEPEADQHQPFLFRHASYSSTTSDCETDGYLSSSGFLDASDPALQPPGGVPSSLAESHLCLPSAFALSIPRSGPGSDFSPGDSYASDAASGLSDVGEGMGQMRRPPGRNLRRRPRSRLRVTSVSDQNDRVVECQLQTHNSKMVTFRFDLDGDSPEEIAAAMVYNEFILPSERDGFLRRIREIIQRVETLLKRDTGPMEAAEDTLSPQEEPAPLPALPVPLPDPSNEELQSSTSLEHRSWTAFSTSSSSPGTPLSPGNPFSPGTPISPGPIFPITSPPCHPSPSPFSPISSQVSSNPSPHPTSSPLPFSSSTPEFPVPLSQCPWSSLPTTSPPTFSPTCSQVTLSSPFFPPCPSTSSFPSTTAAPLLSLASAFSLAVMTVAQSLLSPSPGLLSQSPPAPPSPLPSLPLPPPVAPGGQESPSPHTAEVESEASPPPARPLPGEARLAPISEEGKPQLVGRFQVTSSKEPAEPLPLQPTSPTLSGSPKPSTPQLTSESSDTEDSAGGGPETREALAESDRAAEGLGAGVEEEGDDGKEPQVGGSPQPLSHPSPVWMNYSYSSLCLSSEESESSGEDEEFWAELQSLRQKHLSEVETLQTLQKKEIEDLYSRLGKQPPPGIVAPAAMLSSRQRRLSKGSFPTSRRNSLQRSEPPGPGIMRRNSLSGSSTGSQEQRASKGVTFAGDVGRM

Consider `Cc1nc(C2CCN(C(=O)c3ccc(OC(F)(F)F)cc3N)CC2)c2ncc(N3CCN(C)CC3)cc2n1` [BAY-693], for which the residual activity (as a rule, the activity still measured, relative to the control) in assay [1] is 92%; in [2], 100%; in [3], 96%; in [4], 100%; in [5], 100%; in assay [6], 100%. Also, the residual activity in assay [7] was 64%; in [8], 100%; in assay [9], 81%; in [10], 100%; in assay [11] it was 100%; in assay [12], 100%. Further, the figures for the residual activity in assay [13], in assay [14] and in assay [15] were 85%, 100% and 100%, respectively. In addition, the IC50 (commonly the concentration at which inhibition is half-maximal) in the assay with SNU-449 is 19.5 µM (not active).

On to `CN1CCN(c2cnc3c(C4CCN(C(=O)c5ccc(OC(F)(F)F)cc5N)CC4)ncnc3c2)CC1` [BAY-885], for which the residual activity is 91% in assay [1]; 100% in assay [2]; 100% in assay [3]; 98% in assay [4]; 100% in [5]; 100% in [6]. In addition, the residual activity in assay [7] is 100%; in assay [8] it was 99%; in assay [9] it was 79%; in [10], 100%; in [11], 99%; in assay [12] it was 81%. For the same compound, the residual activity in [13] is 84%; in assay [14], 100%; in assay [15], 100%. Also, the IC50 in the assay with SNU-449 is listed as > 30 µM (not active).
